Experimental data: ChEMBL document CHEMBL4184197 (Bioorg Med Chem, 2018)

Assays:
[1] = tested on: COS-7; assay: Cytotoxicity against African green monkey COS7 cells assessed as cell death after 2 days by MTT assay; assay type: cell-based; conditions: chlorocebus aethiops, cos-7, 48 h
[2] = tested on: Salmonella typhimurium; assay: Mutagenicity in Salmonella typhimurium TA1535 in presence of rat liver S9 fraction by Ames test; assay type: toxicity, organism-based; conditions: salmonella enterica subsp. enterica serovar typhimurium
[3] = tested on: CHO-K1; assay: Genotoxicity in CHOK1 cells in presence of rat liver S9 fraction by fluorescence imaging based micronucleus assay; assay type: toxicity, cell-based, Cricetulus griseus; conditions: chinese hamster
[4] = tested on: CHO-K1; assay: Genotoxicity in CHOK1 cells in absence of rat liver S9 fraction by fluorescence imaging based micronucleus assay; assay type: toxicity, cell-based, Cricetulus griseus; conditions: chinese hamster
[5] = molecular target: Adenosine receptor A1 (Homo sapiens) (UniProt P30542); assay: Binding affinity to recombinant human A1 receptor at 10 uM after 60 mins by scintillation counting analysis relative to control
[6] = organism: Homo sapiens; assay: Binding affinity to central-type benzodiazepine receptor (unknown origin) at 10 uM relative to control
[7] = molecular target: D(3) dopamine receptor (Homo sapiens) (UniProt P35462); assay: Binding affinity to recombinant human dopamine receptor D3 at 10 uM after 60 mins by scintillation counting analysis relative to control
[8] = organism: Rattus norvegicus; assay: Binding affinity to rat GABA receptor at 10 uM after 30 mins by scintillation counting analysis relative to control
[9] = molecular target: Galanin receptor type 2 (Homo sapiens) (UniProt O43603); assay: Binding affinity to recombinant human GAL2 receptor at 10 uM after 120 mins by scintillation counting analysis relative to control
[10] = molecular target: C-X-C chemokine receptor type 2 (Homo sapiens) (UniProt P25025); assay: Binding affinity to recombinant human CXCR2 receptor at 10 uM after 60 mins by scintillation counting analysis relative to control
[11] = molecular target: C-C chemokine receptor type 1 (Homo sapiens) (UniProt P32246); assay: Binding affinity to recombinant human CCR1 receptor at 10 uM after 120 mins by scintillation counting analysis relative to control
[12] = molecular target: Melanocortin receptor 4 (Homo sapiens) (UniProt P32245); assay: Binding affinity to recombinant human MC4 receptor at 10 uM after 120 mins by scintillation counting analysis relative to control
[13] = molecular target: Melatonin receptor type 1A (Homo sapiens) (UniProt P48039); assay: Binding affinity to recombinant human MT1 receptor at 10 uM after 240 mins by scintillation counting analysis relative to control
[14] = molecular target: Substance-P receptor (Homo sapiens) (UniProt P25103); assay: Binding affinity to human NK1 receptor at 10 uM after 30 mins by scintillation counting analysis relative to control
[15] = molecular target: Neuromedin-K receptor (Homo sapiens) (UniProt P29371); assay: Binding affinity to recombinant human NK3 receptor at 10 uM after 120 mins by scintillation counting analysis relative to control
[16] = molecular target: Neuropeptide Y receptor type 1 (Homo sapiens) (UniProt P25929); assay: Binding affinity to human Y1 receptor at 10 uM after 120 mins by scintillation counting analysis relative to control
[17] = molecular target: Neurotensin receptor type 1 (Homo sapiens) (UniProt P30989); assay: Binding affinity to recombinant human NT1 receptor at 10 uM after 60 mins by scintillation counting analysis relative to control
[18] = molecular target: Kappa-type opioid receptor (Homo sapiens) (UniProt P41145); assay: Binding affinity to human kappa opioid receptor at 10 uM after 60 mins by scintillation counting analysis relative to control
[19] = organism: Homo sapiens; assay: Binding affinity to phencyclidine receptor (unknown origin) at 10 uM relative to control
[20] = molecular target: 5-hydroxytryptamine receptor 1A (Homo sapiens) (UniProt P08908); assay: Binding affinity to recombinant human 5-HT1A receptor at 10 uM after 60 mins by scintillation counting analysis relative to control
[21] = molecular target: 5-hydroxytryptamine receptor 1B (Homo sapiens) (UniProt P28222); assay: Binding affinity to recombinant human full length 5-HT1B receptor at 10 uM after 90 mins by scintillation counting analysis relative to control
[22] = molecular target: 5-hydroxytryptamine receptor 5A (Homo sapiens) (UniProt P47898); assay: Binding affinity to recombinant human 5-HT5A receptor at 10 uM after 120 mins by scintillation counting analysis relative to control
[23] = molecular target: 5-hydroxytryptamine receptor 7 (Homo sapiens) (UniProt P34969); assay: Binding affinity to recombinant human 5-HT7 receptor at 10 uM after 120 mins by scintillation counting analysis relative to control
[24] = molecular target: Estrogen receptor (Homo sapiens) (UniProt P03372); assay: Binding affinity to human ER at 10 uM after 1200 mins by scintillation counting analysis relative to control
[25] = organism: Rattus norvegicus; assay: Binding affinity to rat SKCa channel at 10 uM after 60 mins by scintillation counting analysis relative to control
[26] = organism: Homo sapiens; assay: Binding affinity to sodium channel (unknown origin) at 10 uM relative to control
[27] = molecular target: Sodium-dependent noradrenaline transporter (Homo sapiens) (UniProt P23975); assay: Binding affinity to norepinephrine transporter (unknown origin) at 10 uM relative to control
[28] = molecular target: Polyunsaturated fatty acid 5-lipoxygenase (Homo sapiens) (UniProt P09917); assay: Binding affinity to recombinant human 5-LOX at 10 uM after 90 mins by fluorescence assay relative to control
[29] = molecular target: cGMP-specific 3',5'-cyclic phosphodiesterase (Homo sapiens) (UniProt O76074); assay: Binding affinity to human PDE5 at 10 uM after 60 mins by scintillation counting analysis relative to control
[30] = molecular target: Angiotensin-converting enzyme 2 (Homo sapiens) (UniProt Q9BYF1); assay: Binding affinity to recombinant human ACE-2 at 10 uM after 20 mins by fluorescence assay relative to control
[31] = molecular target: Beta-secretase 2 (Homo sapiens) (UniProt Q9Y5Z0); assay: Binding affinity to BACE-2 (unknown origin) at 10 uM relative to control
[32] = molecular target: Endothelin-converting enzyme 1 (Homo sapiens) (UniProt P42892); assay: Binding affinity to ECE-1 (unknown origin) at 10 uM relative to control
[33] = molecular target: Caspase-3 (Homo sapiens) (UniProt P42574); assay: Binding affinity to recombinant human caspase 3 at 10 uM after 60 mins by fluorescence assay relative to control
[34] = molecular target: Procathepsin L (Homo sapiens) (UniProt P07711); assay: Binding affinity to human cathepsin L at 10 uM after 30 mins by fluorescence assay relative to control
[35] = molecular target: Tyrosine-protein phosphatase non-receptor type 1 (Homo sapiens) (UniProt P18031); assay: Binding affinity to recombinant human phosphatase 1B at 10 uM after 30 mins by fluorescence assay relative to control
[36] = molecular target: MAO-B (amine oxidase [flavin-containing] B) (Homo sapiens, UniProt P27338); assay: Binding affinity to recombinant human MAO-B at 10 uM after 60 mins by luminescence analysis relative to control; conditions: read-out: Activity
[37] = molecular target: 3-hydroxy-3-methylglutaryl-coenzyme A reductase (Homo sapiens) (UniProt P04035); assay: Binding affinity to HMG-CoA reductase (unknown origin) at 10 uM by relative to control
[38] = molecular target: NAD-dependent protein deacetylase sirtuin-2 (Homo sapiens) (UniProt Q8IXJ6); assay: Binding affinity to surtuin-2 (unknown origin) at 10 uM by relative to control

Sequence of Beta-secretase 2 (Homo sapiens) (Q9Y5Z0 whole entry): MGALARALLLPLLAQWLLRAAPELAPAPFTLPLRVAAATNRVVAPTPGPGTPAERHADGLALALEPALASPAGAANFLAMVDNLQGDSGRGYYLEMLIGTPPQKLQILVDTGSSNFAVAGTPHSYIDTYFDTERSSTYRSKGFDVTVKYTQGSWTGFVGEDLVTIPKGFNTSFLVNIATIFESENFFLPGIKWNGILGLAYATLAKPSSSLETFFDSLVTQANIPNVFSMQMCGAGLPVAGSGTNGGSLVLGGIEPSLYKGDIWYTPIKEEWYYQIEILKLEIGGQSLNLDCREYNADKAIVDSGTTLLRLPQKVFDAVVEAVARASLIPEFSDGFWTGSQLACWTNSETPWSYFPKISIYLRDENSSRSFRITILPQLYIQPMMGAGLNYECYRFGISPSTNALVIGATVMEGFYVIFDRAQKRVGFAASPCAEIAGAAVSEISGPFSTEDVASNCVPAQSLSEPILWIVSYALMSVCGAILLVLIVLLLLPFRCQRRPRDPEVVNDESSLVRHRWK
Sequence of Caspase-3 (Homo sapiens) (P42574 29-175 limits assumed): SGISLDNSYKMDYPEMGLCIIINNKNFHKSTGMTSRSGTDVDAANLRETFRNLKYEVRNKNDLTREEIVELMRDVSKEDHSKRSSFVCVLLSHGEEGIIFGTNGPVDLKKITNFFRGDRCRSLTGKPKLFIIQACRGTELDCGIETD
Sequence of Caspase-3 (Homo sapiens) (P42574 176-277 limits assumed): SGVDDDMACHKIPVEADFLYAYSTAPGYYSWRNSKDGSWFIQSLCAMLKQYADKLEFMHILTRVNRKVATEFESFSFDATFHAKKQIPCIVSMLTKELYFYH
Sequence of Estrogen receptor (Homo sapiens) (P03372 whole entry): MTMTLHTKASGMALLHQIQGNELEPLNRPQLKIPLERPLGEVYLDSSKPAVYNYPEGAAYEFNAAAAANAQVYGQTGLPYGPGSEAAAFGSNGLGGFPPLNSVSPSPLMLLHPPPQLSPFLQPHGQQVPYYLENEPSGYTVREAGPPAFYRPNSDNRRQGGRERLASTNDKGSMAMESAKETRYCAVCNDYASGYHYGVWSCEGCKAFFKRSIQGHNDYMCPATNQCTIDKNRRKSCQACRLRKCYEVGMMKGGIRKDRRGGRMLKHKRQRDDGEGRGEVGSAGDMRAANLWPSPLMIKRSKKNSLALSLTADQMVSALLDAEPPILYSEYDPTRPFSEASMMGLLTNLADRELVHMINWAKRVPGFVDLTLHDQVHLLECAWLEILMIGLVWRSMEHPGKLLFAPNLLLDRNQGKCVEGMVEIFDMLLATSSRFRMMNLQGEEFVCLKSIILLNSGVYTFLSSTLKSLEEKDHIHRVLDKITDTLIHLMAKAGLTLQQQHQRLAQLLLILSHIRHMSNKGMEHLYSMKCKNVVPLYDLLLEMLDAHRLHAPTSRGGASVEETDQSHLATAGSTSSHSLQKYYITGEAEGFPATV
Sequence of Sodium-dependent noradrenaline transporter (Homo sapiens) (P23975 whole entry): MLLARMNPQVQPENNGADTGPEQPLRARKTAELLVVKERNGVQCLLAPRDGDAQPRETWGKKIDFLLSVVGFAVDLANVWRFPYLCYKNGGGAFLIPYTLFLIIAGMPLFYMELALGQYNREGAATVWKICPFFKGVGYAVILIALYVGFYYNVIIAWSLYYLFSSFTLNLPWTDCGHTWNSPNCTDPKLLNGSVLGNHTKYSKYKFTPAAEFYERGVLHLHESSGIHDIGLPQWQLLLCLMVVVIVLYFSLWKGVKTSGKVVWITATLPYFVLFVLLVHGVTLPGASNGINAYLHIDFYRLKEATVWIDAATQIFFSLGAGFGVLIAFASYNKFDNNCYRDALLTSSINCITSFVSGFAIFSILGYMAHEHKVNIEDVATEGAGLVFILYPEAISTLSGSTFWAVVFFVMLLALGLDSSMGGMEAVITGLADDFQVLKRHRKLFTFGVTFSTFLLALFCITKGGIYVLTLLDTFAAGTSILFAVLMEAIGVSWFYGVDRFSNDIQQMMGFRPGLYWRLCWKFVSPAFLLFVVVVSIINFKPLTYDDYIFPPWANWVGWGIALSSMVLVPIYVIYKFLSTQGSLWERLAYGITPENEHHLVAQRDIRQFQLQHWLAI
Sequence of Adenosine receptor A1 (Homo sapiens) (P30542 whole entry): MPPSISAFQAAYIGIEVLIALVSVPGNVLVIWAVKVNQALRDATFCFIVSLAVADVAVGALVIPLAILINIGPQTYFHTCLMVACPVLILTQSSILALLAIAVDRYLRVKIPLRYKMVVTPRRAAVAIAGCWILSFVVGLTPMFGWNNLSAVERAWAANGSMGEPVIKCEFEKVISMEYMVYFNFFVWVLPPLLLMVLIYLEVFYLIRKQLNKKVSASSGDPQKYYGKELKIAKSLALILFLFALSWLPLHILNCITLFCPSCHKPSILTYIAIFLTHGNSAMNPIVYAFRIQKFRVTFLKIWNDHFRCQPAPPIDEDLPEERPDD
Sequence of 5-hydroxytryptamine receptor 5A (Homo sapiens) (P47898 whole entry): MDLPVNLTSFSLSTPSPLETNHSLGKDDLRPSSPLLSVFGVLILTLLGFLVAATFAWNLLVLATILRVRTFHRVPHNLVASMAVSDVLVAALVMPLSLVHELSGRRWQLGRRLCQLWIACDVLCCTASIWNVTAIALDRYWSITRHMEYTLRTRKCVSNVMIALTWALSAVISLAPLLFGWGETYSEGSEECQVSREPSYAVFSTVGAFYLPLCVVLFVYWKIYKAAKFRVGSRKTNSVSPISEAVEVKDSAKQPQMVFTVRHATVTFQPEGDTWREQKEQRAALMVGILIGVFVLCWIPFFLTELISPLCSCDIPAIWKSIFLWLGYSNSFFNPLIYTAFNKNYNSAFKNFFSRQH
Sequence of Galanin receptor type 2 (Homo sapiens) (O43603 whole entry): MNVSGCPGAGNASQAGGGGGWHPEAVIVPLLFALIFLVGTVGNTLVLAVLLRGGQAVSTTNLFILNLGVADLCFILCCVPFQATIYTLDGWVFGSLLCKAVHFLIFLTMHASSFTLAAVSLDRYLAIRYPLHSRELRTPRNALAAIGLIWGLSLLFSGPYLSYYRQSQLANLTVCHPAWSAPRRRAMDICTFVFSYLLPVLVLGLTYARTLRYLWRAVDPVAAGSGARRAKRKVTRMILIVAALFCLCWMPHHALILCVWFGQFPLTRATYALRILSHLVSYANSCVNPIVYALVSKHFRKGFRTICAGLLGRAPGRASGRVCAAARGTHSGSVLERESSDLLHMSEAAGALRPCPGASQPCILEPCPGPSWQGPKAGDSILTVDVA
Sequence of Melanocortin receptor 4 (Homo sapiens) (P32245 whole entry): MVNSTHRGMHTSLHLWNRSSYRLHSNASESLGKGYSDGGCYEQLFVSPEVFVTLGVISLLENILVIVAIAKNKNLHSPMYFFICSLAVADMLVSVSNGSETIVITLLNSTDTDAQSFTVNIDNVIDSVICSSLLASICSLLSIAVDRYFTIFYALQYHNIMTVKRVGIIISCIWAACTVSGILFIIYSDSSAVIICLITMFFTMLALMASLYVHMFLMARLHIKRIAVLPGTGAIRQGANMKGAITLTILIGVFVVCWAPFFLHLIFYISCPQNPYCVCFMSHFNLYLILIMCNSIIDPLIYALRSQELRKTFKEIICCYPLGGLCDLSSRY
Sequence of C-C chemokine receptor type 1 (Homo sapiens) (P32246 whole entry): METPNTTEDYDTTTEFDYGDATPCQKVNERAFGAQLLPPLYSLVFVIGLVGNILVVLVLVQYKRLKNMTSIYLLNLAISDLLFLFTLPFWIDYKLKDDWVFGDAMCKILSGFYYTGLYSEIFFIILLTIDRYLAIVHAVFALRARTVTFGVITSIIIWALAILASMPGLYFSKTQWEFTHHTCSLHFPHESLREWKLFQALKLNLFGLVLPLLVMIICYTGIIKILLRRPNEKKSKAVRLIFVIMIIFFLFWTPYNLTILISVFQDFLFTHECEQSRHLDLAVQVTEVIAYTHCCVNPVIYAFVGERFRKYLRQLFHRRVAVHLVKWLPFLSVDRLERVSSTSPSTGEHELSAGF
Sequence of D(3) dopamine receptor (Homo sapiens) (P35462 whole entry): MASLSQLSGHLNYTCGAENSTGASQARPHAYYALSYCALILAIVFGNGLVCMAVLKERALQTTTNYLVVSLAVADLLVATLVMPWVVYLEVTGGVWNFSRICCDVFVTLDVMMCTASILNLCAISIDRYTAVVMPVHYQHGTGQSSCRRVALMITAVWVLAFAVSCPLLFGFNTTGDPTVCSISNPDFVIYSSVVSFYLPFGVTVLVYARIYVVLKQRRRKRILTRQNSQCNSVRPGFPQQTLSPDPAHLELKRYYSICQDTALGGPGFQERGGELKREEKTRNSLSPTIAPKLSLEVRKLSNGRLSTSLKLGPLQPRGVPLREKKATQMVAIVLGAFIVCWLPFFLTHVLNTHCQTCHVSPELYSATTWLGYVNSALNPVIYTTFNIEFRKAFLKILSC
Sequence of Procathepsin L (Homo sapiens) (P07711 114-333 limits assumed): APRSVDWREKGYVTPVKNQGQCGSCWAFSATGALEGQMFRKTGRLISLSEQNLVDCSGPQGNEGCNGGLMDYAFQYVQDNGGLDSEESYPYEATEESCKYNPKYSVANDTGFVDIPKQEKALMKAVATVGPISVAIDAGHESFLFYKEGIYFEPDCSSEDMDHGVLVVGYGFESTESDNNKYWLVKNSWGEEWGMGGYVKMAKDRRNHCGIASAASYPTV
Sequence of Tyrosine-protein phosphatase non-receptor type 1 (Homo sapiens) (P18031 whole entry): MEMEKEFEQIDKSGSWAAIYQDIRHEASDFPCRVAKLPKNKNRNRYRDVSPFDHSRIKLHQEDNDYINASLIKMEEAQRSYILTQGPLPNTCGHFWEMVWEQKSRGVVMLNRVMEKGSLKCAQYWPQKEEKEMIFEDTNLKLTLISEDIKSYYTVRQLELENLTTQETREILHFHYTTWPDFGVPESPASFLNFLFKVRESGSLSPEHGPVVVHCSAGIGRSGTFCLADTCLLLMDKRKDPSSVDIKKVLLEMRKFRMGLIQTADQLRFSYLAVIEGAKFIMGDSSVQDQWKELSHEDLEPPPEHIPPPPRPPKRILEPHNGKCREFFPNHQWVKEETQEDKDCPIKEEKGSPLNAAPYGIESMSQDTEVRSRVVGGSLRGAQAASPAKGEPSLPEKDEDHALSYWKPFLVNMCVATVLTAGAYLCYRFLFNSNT

For `CCOc1c(Cl)cc(C(=O)Nc2ccc(C(=O)O)c(C)c2)cc1OC(C)C`, the Activity [1] was “Non-Toxic”, the Activity [2] was “Non-Toxic” and the Activity [3] was “Non-Toxic”. The Activity [4] was “Non-Toxic”, the Activity [5] was under 25% and the Activity [6] was under 25%. The Activity [7] was under 25%, the Activity [8] was under 25% and the Activity [9] was under 25%. For the same compound, the Activity [10] was under 25%, the Activity [11] was under 25% and the Activity [12] was under 25%. For the same compound, the Activity [13] was under 25%, the Activity [14] was under 25% and the Activity [15] was under 25%. It also gave an Activity [16] of under 25%, an Activity [17] of under 25% and an Activity [18] of under 25%. For the same compound, the Activity [19] was under 25%, the Activity [20] was under 25% and the Activity [21] was under 25%. The Activity [22] was under 25%, the Activity [23] was under 25% and the Activity [24] was under 25%. For the same compound, the Activity [25] was under 25%, the Activity [26] was under 25% and the Activity [27] was under 25%. The Activity [28] was under 25%, the Activity [29] was under 25% and the Activity [30] was under 25%. The Activity [31] was under 25%, the Activity [32] was under 25% and the Activity [33] was under 25%. For the same compound, the Activity [34] was under 25%, the Activity [35] was under 25% and the activity at 1 h, 10 µM [36] was at most 25%. For the same compound, the Activity [37] was under 25% and the Activity [38] was under 25%.
